Experimental data: patent US7678815B2, “Thiazole-4-carboxyamide derivatives” (Hoffmann-La Roche Inc., priority 2005, dated 2010)
pKi: −log10 of the molar value.

Target: T1, human mGlu 5a receptor (Homo sapiens, UniProt P41594)
T1 construct: expressed in transfected cells; host or cells: EBNA cells (transient transfection), cell membrane homogenates
Assay: [3H]MPEP competition binding on membranes of EBNA cells transfected with human mGlu 5a receptor
Conditions: competition with [3H]MPEP (2 nM), 1 h at 4° C., Ki=IC50/[1+L/Kd]
Procedure: The pharmacological activity of the compounds was tested using the following method: For binding experiments, cDNA encoding human mGlu 5a receptor was transiently transfected into EBNA cells using a procedure described by Schlaeger and Christensen [Cytotechnology 15:1-13 (1998)]. Cell membrane homogenates were stored at −80° C. until the day of assay where upon they were thawed and resuspended and polytronized in 15 mM Tris-HCl, 120 mM NaCl, 100 mM KCl, 25 mM CaCl2, 25 mM MgCl2 binding buffer at pH 7.4 to a final assay concentration of 20 μg protein/well.
Saturation isotherms were determined by addition of twelve [^3H]MPEP concentrations (0.04-100 nM) to these membranes (in a total volume of 200 μl) for 1 h at 4° C. Competition experiments were performed with a fixed concentration of [^3H]MPEP (2 nM) and IC50 values of test compounds evaluated using 11 concentrations (0.3-10,000 nM). Incubations were performed for 1 h at 4° C.
At the end of the incubation, membranes were filtered onto unifilter (96-well white microplate with bonded GF/C filter preincubated 1 h in 0.1% PEI in wash buffer, Packard Bio-Science, Meriden, Conn.) with a Filtermate 96 harvester (Packard BioScience) and washed 3 times with cold 50 mM Tris-HCl, pH 7.4 buffer. Nonspecific binding was measured in the presence of 10 μM MPEP. The radioactivity on the filter was counted (3 min) on a Packard Top-count microplate scintillation counter with quenching correction after addition of 45 μl of microscint 40 (Canberra Packard S.A., Zürich, Switzerland) and shaking for 20 min.
For binding experiments the Ki values of the compounds tested are given. The Ki value is defined by the following formula: Ki=IC50/[1+L/Kd] in which the IC50 values are those concentrations of the compounds tested which cause 50% inhibition of the competing radioligand ([^3H]MPEP). L is the concentration of radioligand used in the binding experiment and the Kd value of the radioligand is empirically determined for each batch of membranes prepared.

T1 sequence (P41594 21-1180 isoform P41594-2 limits assumed): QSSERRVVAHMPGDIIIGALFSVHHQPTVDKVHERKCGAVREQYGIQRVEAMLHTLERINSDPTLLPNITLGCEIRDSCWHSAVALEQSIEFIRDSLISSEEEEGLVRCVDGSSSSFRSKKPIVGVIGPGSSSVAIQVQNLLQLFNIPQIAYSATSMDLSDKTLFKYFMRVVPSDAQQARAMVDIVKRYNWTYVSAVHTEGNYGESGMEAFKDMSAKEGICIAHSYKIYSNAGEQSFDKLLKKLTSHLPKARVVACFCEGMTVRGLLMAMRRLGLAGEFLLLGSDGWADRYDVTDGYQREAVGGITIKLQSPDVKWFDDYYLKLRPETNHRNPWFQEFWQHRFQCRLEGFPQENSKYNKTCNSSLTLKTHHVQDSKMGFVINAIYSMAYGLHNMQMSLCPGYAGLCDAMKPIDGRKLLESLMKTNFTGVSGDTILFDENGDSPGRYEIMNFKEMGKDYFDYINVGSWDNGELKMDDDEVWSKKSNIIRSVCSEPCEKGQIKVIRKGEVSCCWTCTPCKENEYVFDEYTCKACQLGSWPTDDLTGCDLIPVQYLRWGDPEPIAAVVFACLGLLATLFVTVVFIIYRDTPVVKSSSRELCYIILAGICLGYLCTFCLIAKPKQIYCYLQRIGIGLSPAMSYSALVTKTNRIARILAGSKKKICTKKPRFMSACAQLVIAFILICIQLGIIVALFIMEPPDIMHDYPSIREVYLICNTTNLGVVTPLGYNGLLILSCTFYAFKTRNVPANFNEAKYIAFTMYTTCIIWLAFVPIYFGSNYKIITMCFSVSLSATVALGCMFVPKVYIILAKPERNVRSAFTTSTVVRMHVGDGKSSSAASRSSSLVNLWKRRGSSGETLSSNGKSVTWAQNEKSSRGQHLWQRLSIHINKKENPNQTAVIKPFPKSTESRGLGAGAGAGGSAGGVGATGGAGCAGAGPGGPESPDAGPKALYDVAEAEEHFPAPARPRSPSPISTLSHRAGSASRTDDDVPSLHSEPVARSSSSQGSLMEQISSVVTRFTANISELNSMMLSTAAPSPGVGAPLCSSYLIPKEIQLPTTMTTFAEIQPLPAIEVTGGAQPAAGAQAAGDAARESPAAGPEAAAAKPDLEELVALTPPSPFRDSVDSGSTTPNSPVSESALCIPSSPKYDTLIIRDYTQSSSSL

Point of comparison: `Cc1cccc(NC(=O)c2ncsc2Nc2cccnc2)n1` [Example 1, 5-(Pyridin-3-ylamino)-thiazole-4-carboxylic acid (6-methyl-pyridin-2-yl)-amide], pKi 7.54. Against it:
- Cc1cccc(NC(=O)c2nc(C)sc2Nc2cccc(S(C)(=O)=O)c2)n1 [Example 149, 5-(3-Methanesulfonyl-phenylamino)-2-methyl-thiazole-4-carboxylic acid (6-methyl-pyridin-2-yl)-amide] — 0.26 log units lower, 7.28
- O=C(Nc1cccc(Cl)c1)c1ncsc1Nc1cccnc1 [Example 2, 5-(Pyridin-3-ylamino)-thiazole-4-carboxylic acid (3-chloro-phenyl)-amide] — 0.63 log units lower, 6.91
- Cc1nccc(NC(=O)c2nc(C)sc2Nc2cccc(C(N)=O)c2)n1 [Example 209, 5-(3-Carbamoyl-phenylamino)-2-methyl-thiazole-4-carboxylic acid (2-methyl-pyrimidin-4-yl)-amide] — within 0.2 log units, 7.40
- CNc1scnc1C(=O)Nc1cccc(Cl)c1 [Example 24, 5-Methylamino-thiazole-4-carboxylic acid (3-chloro-phenyl)-amide] — 0.64 log units lower, 6.90
- Cc1cccc(NC(=O)c2ncsc2Nc2ccccc2)n1 [Example 13, 5-Phenylamino-thiazole-4-carboxylic acid (6-methyl-pyridin-2-yl)-amide] — within 0.2 log units, 7.59
- CC(=O)c1cccc(Nc2scnc2C(=O)Nc2cccc(C)n2)c1 [Example 88, 5-(3-Acetyl-phenylamino)-thiazole-4-carboxylic acid (6-methyl-pyridin-2-yl)-amide] — 0.20 log units higher, 7.74
- Cc1nc(C(=O)Nc2cccc(Cl)c2)c(Nc2cccc(CNC(=O)OC(C)(C)C)c2)s1 [Example 145, {3-[4-(3-Chloro-phenylcarbamoyl)-2-methyl-thiazol-5-ylamino]-benzyl}-carbamic acid tert-butyl ester] — within 0.2 log units, 7.40
- O=C(Nc1cccc(Cl)c1)c1ncsc1NC1CC1 [Example 18, 5-Cyclopropylamino-thiazole-4-carboxylic acid (3-chloro-phenyl)-amide] — 1.20 log units lower, 6.34
- Cc1cccc(NC(=O)c2ncsc2Nc2c(C)noc2C)n1 [Example 74, 5-(3,5-Dimethyl-isoxazol-4-ylamino)-thiazole-4-carboxylic acid (6-methyl-pyridin-2-yl)-amide] — 0.54 log units lower, 7.00
- Cc1csc(NC(=O)c2ncsc2Nc2cccc(C#N)c2)n1 [Example 81, 5-(3-Cyano-phenylamino)-thiazole-4-carboxylic acid (4-methyl-thiazol-2-yl)-amide] — within 0.2 log units, 7.72
